Source: patent publication US20230174649A1, “PHARMACEUTICAL COMPOSITIONS CONTAINING ANTI-CD47 ANTIBODIES” (I-MAB BIOPHARMA US LIMITED, priority 2020, published 2023)
Where “and” joins values, the source holds several entries; their conditions need not be identical. Equal values may be shown once.

Assays:
Calreticulin = assay: FACS analysis of expression level of calreticulin on tumor cell surface; format: cell-based, Human; details: Toledo cells, 12 hours
Method: (§1) For FACS analysis, on the day of analysis (day 1), Toledo cells were seeded into 96 well plate and cultured at a density of 0.2×10^6 cells/well. Then the cells were treated with the selected small molecule therapeutic agents for 12 hours.
(§2) On day 2, cells were harvested, washed twice and then re-suspended in 100 uL FACS buffer subject to FACS analysis. For detection of the expression of calreticulin and CD47, cells were incubated with anti-calreticulin antibody and commercially available anti-CD47 antibody (BD Biosciences, Catalog number: 561249) in dark at 4° C. for 30 mins.
(§3) Then, the cells were subject to FACS analysis. Data was acquired and analyzed.

macrophages = assay: Macrophage Viability Assay (CellTiter-Glo); format: cell-based, Human; details: for Macrophage viability (CellTiter-Glo Luminescent Cell Viability Assay): 16 hours, three replicate lines
Method: Then, the monocytes isolated by MACS were subsequently cultured in fresh complete medium supplemented with recombinant human granulocyte-macrophage colony-stimulating factor GM-CSF (50 ng/ml) and human recombinant IL-4 (35 ng/ml) to activate differentiated macrophages. After 6 days of culture (on day 7), cells were harvested, pooled together and counted for next use.
The cells from Example 2 were plated into a 96-well flat bottom plate at a density of 0.05×10^6 cells/well. After 2 hours of incubation, the macrophages were well attached to the plate. Then selected small molecule therapeutic agents were added to the well and cocultured for 16 hours. On day 8, macrophage viability was assessed by CellTiter-Glo® Luminescent Cell Viability Assay, according to the manufacture's instruction.

CD47 = assay: FACS analysis of expression level of CD47 on tumor cell surface; format: cell-based, Human; details: Toledo cells, 12 hours
Method: as §1, §2, §3

Toledo Cells = assay: FACS-based phagocytosis assay, macrophages cocultured with Toledo cells; format: cell-based, Human
Method: FACS-based phagocytosis assays were performed to evaluate the phagocytic abilities of macrophages.
Toledo Cells (a tumor cell line, as a target) were labelled with CellTrace™ Far Red and plated into 96-well plate at a density of 0.15×10^6 cells/well for 12 hours. The Macrophages were prepared as discussed above and then labelled with CellTrace Violet. Next, the macrophages were added into the plate as an effector at an effector:target (Toledo) ratio of 1:3, giving a final density of macrophages at 0.05×10^6 cells/well. Macrophages and tumor cells were cocultured for 2-6 h at 37° C. in the presence of the indicated treatments (small molecule therapeutic agents, CD47 antibody, CD20 antibody or combinations). The incubation time depending on the phagocytosis rate, expecting phagocytosis of 5-20% cells.
Then, cells were acquired and data were analyzed.

WSU-DLCL2 cells = assay: Anti-tumor efficacy in WSU-DLCL2 tumor xenograft model; format: in vivo, NOD/SCID mice; details: 5 mg/kg each agent; for T/C (%) / TGI (%): day 43
Excerpt: To establish the xenograft model, human diffuse large B Cell lymphoma (WSU-DLCL2 cells) were subcutaneously (s.c.) injected into 6- to 7-week-old NOD/SCID mice (Shanghai Lingchang Biotechnology Co., Ltd, Shanghai, China) for tumor development. When tumor volume reaches a mean value of approximately 94 mm^3, 32 mice were divided into 4 groups of 8 equally and injected intravenously (i.v.) with PBS (control group), anti-CD47 antibody (i.e. T4J), rituximab, or anti-CD47 antibody T4J+ rituximab at a dose of 5 mg/kg, respectively (See, Table 5). The anti-tumor efficacy studies were performed using a twice per week dosing schedule (5 mg/kg) for 4 weeks.
The first day of antibody administration was designated as day 0. Mice were then monitored for tumor development and progression, and observation continued until day 43. Tumor volumes were measured twice a week in two dimensions (length and width) using a caliper, and the volumes were calculated using the following formula: Volume (V)=(L×W×W)/2, where L is tumor length (the longest tumor dimension) and W is tumor width (the longest tumor dimension perpendicular to L). The percentage of tumor growth inhibition (TGI) was calculated as follows: 100%×(1−[(Vtreated(^finalday)−Vtreated(^initial day))/(Vcontrol(^final day)−Vcontrol(^initial day)))]), where V is the tumor volume. Tumor body weight was measured twice per week after randomization and at day 43. Antibody treatment was then stopped after 43 days of study and mice were euthanized and necropsied for evidence of tumors.
Group comparisons were carried out using one-way analysis of variance (ANOVA). Data analysis were performed using IBM SPSS software version 18.0 (IBM, Armonk, N.Y., U.S.). Values of tumor volume and tumor body weight were expressed as mean±standard error of the mean (SEM). A P value of less than 0.05 (p<0.05) was considered statistically significant.

[1] = from tumor volume, i.v., BIW × 4 weeks

Compound: Nc1cccc2c1CN(C1CCC(=O)NC1=O)C2=O (stereo not shown) [Lenalidomide]
- Mean Fluorescence Intensity (MFI) Calreticulin (Calreticulin; 0.008 uM): 69.3
- Mean Fluorescence Intensity (MFI) Calreticulin (Calreticulin; 0.04 uM): 70.1
- Mean Fluorescence Intensity (MFI) Calreticulin (Calreticulin; 0.2 uM): 73.4
- Mean Fluorescence Intensity (MFI) Calreticulin (Calreticulin; 1 uM): 75.6
- Mean Fluorescence Intensity (MFI) Calreticulin (Calreticulin; 5 uM): 75.2
- Macrophage viability (CellTiter-Glo Luminescent Cell Viability Assay) (macrophages; Cpd 0.002 uM): 5972 and 5872 and 5776
- Macrophage viability (CellTiter-Glo Luminescent Cell Viability Assay) (macrophages; Cpd 0.008 uM): 5992 and 5996 and 6180
- Macrophage viability (CellTiter-Glo Luminescent Cell Viability Assay) (macrophages; Cpd 0.04 uM): 6152 and 6132 and 5892
- Macrophage viability (CellTiter-Glo Luminescent Cell Viability Assay) (macrophages; Cpd 0.2 uM): 6216 and 6088 and 6456
- Macrophage viability (CellTiter-Glo Luminescent Cell Viability Assay) (macrophages; Cpd 1 uM): 6016 and 6108 and 6088
- Macrophage viability (CellTiter-Glo Luminescent Cell Viability Assay) (macrophages; Cpd 5 uM): 5840 and 6236 and 6108
- Macrophage viability (CellTiter-Glo Luminescent Cell Viability Assay) (macrophages; Cpd 25 uM): 5432 and 5752 and 5744
- Macrophage viability (CellTiter-Glo Luminescent Cell Viability Assay) (macrophages; Cpd 50 uM): 5208 and 5124 and 5644
- toxicity to macrophages (macrophages; dose as high as 50 μM): showed toxicity
- toxicity to macrophages (macrophages; dose lower than 10 μM): little toxic
- Mean Fluorescence Intensity (MFI) CD47 (CD47; 0.008 uM): 8706
- Mean Fluorescence Intensity (MFI) CD47 (CD47; 0.04 uM): 8881
- Mean Fluorescence Intensity (MFI) CD47 (CD47; 0.2 uM): 8730
- Mean Fluorescence Intensity (MFI) CD47 (CD47; 1 uM): 8985
- Mean Fluorescence Intensity (MFI) CD47 (CD47; 5 uM): 8443
- macrophage phagocytosis (untreated = 1.00) (Toledo Cells; Cpd 0.0016 uM, T4J = 0, R = 0): 1.02
- macrophage phagocytosis (untreated = 1.00) (Toledo Cells; Cpd 0.0016 uM, T4J = 0, R = 0.01 ug/ml): 1.46
- macrophage phagocytosis (untreated = 1.00) (Toledo Cells; Cpd 0.0016 uM, T4J = 0.1 ug/ml, R = 0): 2.48
- macrophage phagocytosis (untreated = 1.00) (Toledo Cells; Cpd 0.0016 uM, T4J = 0.1 ug/ml, R = 0.01 ug/ml): 3.10
- macrophage phagocytosis (untreated = 1.00) (Toledo Cells; Cpd 0.008 uM, T4J = 0, R = 0): 1.03
- macrophage phagocytosis (untreated = 1.00) (Toledo Cells; Cpd 0.008 uM, T4J = 0, R = 0.01 ug/ml): 1.47
- macrophage phagocytosis (untreated = 1.00) (Toledo Cells; Cpd 0.008 uM, T4J = 0.1 ug/ml, R = 0): 2.57
- macrophage phagocytosis (untreated = 1.00) (Toledo Cells; Cpd 0.008 uM, T4J = 0.1 ug/ml, R = 0.01 ug/ml): 3.04
- macrophage phagocytosis (untreated = 1.00) (Toledo Cells; Cpd 0.04 uM, T4J = 0, R = 0): 1.08
- macrophage phagocytosis (untreated = 1.00) (Toledo Cells; Cpd 0.04 uM, T4J = 0, R = 0.01 ug/ml): 1.46
- macrophage phagocytosis (untreated = 1.00) (Toledo Cells; Cpd 0.04 uM, T4J = 0.1 ug/ml, R = 0): 2.56
- macrophage phagocytosis (untreated = 1.00) (Toledo Cells; Cpd 0.04 uM, T4J = 0.1 ug/ml, R = 0.01 ug/ml): 3.06
- macrophage phagocytosis (untreated = 1.00) (Toledo Cells; Cpd 0.2 uM, T4J = 0, R = 0): 0.96
- macrophage phagocytosis (untreated = 1.00) (Toledo Cells; Cpd 0.2 uM, T4J = 0, R = 0.01 ug/ml): 1.51
- macrophage phagocytosis (untreated = 1.00) (Toledo Cells; Cpd 0.2 uM, T4J = 0.1 ug/ml, R = 0): 2.61
- macrophage phagocytosis (untreated = 1.00) (Toledo Cells; Cpd 0.2 uM, T4J = 0.1 ug/ml, R = 0.01 ug/ml): 3.04
- macrophage phagocytosis (untreated = 1.00) (Toledo Cells; Cpd 1 uM, T4J = 0, R = 0): 1.01
- macrophage phagocytosis (untreated = 1.00) (Toledo Cells; Cpd 1 uM, T4J = 0, R = 0.01 ug/ml): 1.47
- macrophage phagocytosis (untreated = 1.00) (Toledo Cells; Cpd 1 uM, T4J = 0.1 ug/ml, R = 0): 2.62
- macrophage phagocytosis (untreated = 1.00) (Toledo Cells; Cpd 1 uM, T4J = 0.1 ug/ml, R = 0.01 ug/ml): 3.07
- phagocytic ability of macrophages (Toledo Cells; triple combination: T4J, Rituximab and the small molecule): does not show the synergistic effects

Compound: Rituximab: anti-CD20 antibody, heavy chain SEQ ID NO: 83, light chain SEQ ID NO: 84
- macrophage phagocytosis (untreated = 1.00) (Toledo Cells; Cpd 0, T4J = 0, R = 0.01 ug/ml, listed as R): 1.36 and 1.31 and 1.57 and 1.38
- phagocytic ability of macrophages (Toledo Cells; agent itself or antibody combination): can promote macrophage phagocytosis
- Tumor Body Weight (mg) on day 43 (Mean ± SEM) (WSU-DLCL2 cells; i.v., BIW × 4 weeks): 1673.7 ± 269.0 mg
- Tumor Volume (mm^3) on day 43 (Mean ± SEM) (WSU-DLCL2 cells; i.v., BIW × 4 weeks): 1578.37 ± 241.53 mm^3
- T/C (%) (WSU-DLCL2 cells; from tumor body weight): 66%
- TGI (%) (WSU-DLCL2 cells; from tumor body weight): 34%
- T/C (%) (WSU-DLCL2 cells; [1]): 73%
- TGI (%) (WSU-DLCL2 cells; [1]): 27%
